From PubChem BioAssay AID743388 (Vanderbilt Specialized Chemistry Center, 2014)
Where “and” joins values, the source holds several entries; their conditions need not be identical. Equal values may be shown once. Calls of active or inactive are those of the source. No rule for the calls is given here.

Target: Phospholipase D1 (Homo sapiens) (UniProt Q13393)
Test: PLD1-selective inhibitors in cells (AID 743388)
Details: Calu-1 cells, PMA-stimulated, PtdBuOH-d9 by mass spectrometry, 30 min; at 20 µM; hits give high values

Phospholipase D1 (Homo sapiens), sequence (Q13393 whole entry, looked up): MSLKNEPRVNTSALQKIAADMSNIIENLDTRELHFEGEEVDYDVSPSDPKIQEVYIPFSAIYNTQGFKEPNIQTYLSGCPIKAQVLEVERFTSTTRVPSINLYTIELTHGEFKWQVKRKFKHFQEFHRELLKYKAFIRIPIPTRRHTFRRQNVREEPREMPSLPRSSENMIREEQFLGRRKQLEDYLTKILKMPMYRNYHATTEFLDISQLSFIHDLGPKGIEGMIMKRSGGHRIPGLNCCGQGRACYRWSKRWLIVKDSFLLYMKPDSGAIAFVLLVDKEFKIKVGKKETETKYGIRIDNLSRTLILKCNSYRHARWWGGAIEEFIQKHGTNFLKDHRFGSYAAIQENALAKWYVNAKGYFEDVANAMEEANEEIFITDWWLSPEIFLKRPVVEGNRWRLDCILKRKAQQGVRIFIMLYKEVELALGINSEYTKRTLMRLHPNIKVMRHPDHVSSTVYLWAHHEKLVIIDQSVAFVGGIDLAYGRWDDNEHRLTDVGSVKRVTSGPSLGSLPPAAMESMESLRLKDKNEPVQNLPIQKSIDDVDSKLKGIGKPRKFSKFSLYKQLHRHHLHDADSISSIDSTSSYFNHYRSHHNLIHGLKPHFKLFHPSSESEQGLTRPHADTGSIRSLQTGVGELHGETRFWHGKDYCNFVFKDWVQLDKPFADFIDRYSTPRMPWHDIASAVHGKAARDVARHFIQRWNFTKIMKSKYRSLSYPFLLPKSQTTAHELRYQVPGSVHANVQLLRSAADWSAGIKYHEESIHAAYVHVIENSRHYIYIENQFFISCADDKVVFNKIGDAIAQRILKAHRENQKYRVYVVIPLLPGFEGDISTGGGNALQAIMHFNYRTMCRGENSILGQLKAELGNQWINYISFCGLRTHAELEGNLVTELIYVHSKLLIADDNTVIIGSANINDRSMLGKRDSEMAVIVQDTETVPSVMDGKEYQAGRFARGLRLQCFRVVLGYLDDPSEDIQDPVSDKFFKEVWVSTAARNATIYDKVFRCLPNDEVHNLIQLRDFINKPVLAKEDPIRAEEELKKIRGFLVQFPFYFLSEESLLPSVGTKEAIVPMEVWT

Row | Structure (SMILES) | inhibition
1 | O=C(NCCN1CCC2(CC1)C(=O)NCN2Cc1cccnc1)c1ccc(F)cc1 | 3% (inactive)
2 | O=C(NCCN1CCC2(CC1)C(=O)NCN2Cc1cccnc1)c1ccc(F)cc1F | 7% (inactive)
3 | COc1cccc(C(=O)N2CNC(=O)C23CCN(CCNC(=O)c2ccc4ccccc4c2)CC3)c1 | 50%
4 | O=C(NCCN1CCC2(CC1)C(=O)NCN2Cc1cccnc1)c1ccc2c(c1)C(=O)NC2=O | 13% (inactive)
5 | O=C(NCCN1CCC2(CC1)C(=O)NCN2Cc1ccncc1)c1ccc2ccccc2c1 | 53%
6 | O=C(NCCN1CCC2(CC1)C(=O)NCN2Cc1cccnc1)c1ccc(Cl)cc1F | 0% (inactive)
7 | O=C(NCCN1CCC2(CC1)C(=O)NCN2Cc1cccnc1)c1c[nH]c2ccccc12 | 25% (inactive)
8 | O=C(NCCN1CCC2(CC1)C(=O)NCN2c1cccnc1)c1cc2cc(F)ccc2[nH]1 | 9% (inactive)
9 | O=C(NCCN1CCC2(CC1)C(=O)NCN2c1ccnc(F)c1)c1ccc2ccccc2c1 | 3% (inactive)
10 | O=C(NCCN1CCC2(CC1)C(=O)NCN2Cc1ccccc1Cl)c1ccc2ccccc2c1 | 91%
11 | O=C(NCCN1CCC2(CC1)C(=O)NCN2Cc1ccccn1)c1ccc2ccccc2c1 | 88%
12 | Cc1cc(Br)cnc1C(=O)NCCN1CCC2(CC1)C(=O)NCN2Cc1cccnc1 | 0% (inactive)
13 | O=C(NCCN1CCC2(CC1)C(=O)NCN2Cc1cccnc1)c1ccc(Br)cc1 | 9% (inactive)
14 | O=C(NCCN1CCC2(CC1)C(=O)NCN2c1cncc(F)c1)c1ccc(F)c(F)c1 | 17% (inactive)
15 | O=C(NCCN1CCC2(CC1)C(=O)NCN2Cc1cccnc1)c1ccccc1F | 0% (inactive)
16 | O=C(NCCN1CCC2(CC1)C(=O)NCN2Cc1cccnc1)c1ccc2ccccc2n1 | 11% (inactive)
17 | O=C(NCCN1CCC2(CC1)C(=O)NCN2c1cccnc1)c1ccc2ccccc2c1 | 7% (inactive)
18 | Cn1c(C(=O)NCCN2CCC3(CC2)C(=O)NCN3Cc2cccnc2)cc2ccccc21 | 10% (inactive)
19 | O=C(NCCN1CCC2(CC1)C(=O)NCN2Cc1cccnc1)c1ccc(SC(F)(F)F)cc1 | 5% (inactive)
20 | O=C(NCCN1CCC2(CC1)C(=O)NCN2Cc1cccc2ccccc12)c1ccc2ccccc2c1 | 94%
21 | O=C(NCCN1CCC2(CC1)C(=O)NCN2c1cccnc1)c1ccc(F)c(F)c1 | 16% (inactive)
22 | Cc1ccc(S(=O)(=O)NCCN2CCC3(CC2)C(=O)NCN3Cc2cccnc2)cc1 | 0% (inactive)
23 | Cc1cc(N2CNC(=O)C23CCN(CCNC(=O)c2ccc4ccccc4c2)CC3)ccn1 | 7% (inactive)
24 | O=C(NCCN1CCC2(CC1)C(=O)NCN2Cc1cccnc1)c1nc(-c2ccc(F)cc2)no1 | 30% (inactive)
25 | O=C(NCCN1CCC2(CC1)C(=O)NCN2Cc1cccnc1)c1cc2cccnc2[nH]1 | 16% (inactive)
26 | O=C(NCCN1CCC2(CC1)C(=O)NCN2c1cncc(F)c1)c1cc(F)c(F)c(F)c1 | 17% (inactive)

Row | Structure (SMILES) | inhibition
27 | O=C(NCCN1CCC2(CC1)C(=O)NCN2Cc1ccc(Cl)cc1)c1ccc2ccccc2c1 | 64%
28 | O=C(NCCN1CCC2(CC1)C(=O)NCN2CC1CC1)c1ccc2ccccc2c1 | 43% (inactive)
29 | O=C(NCCN1CCC2(CC1)C(=O)NCN2c1cncc(F)c1)c1ccc(F)cc1 | 25% (inactive)
30 | Cc1nc2sc(C(=O)NCCN3CCC4(CC3)C(=O)NCN4Cc3cccnc3)c(N)c2c(C)c1C | 9% (inactive)
31 | O=C(NCCN1CCC2(CC1)C(=O)NCN2Cc1cccnc1)c1ccc(Cl)c(Cl)c1 | 13% (inactive)
32 | O=C(NCCN1CCC2(CC1)C(=O)NCN2Cc1cccnc1)c1ccc(F)c(F)c1 | 3% (inactive)
33 | O=C(NCCN1CCC2(CC1)C(=O)NCN2c1cccnc1)c1ccc(Br)cc1 | 0% (inactive)
34 | O=C(NCCN1CCC2(CC1)C(=O)NCN2Cc1cccnc1)c1cccc(C(F)(F)F)c1 | 0% (inactive)
35 | O=C(NCCN1CCC2(CC1)C(=O)NCN2Cc1cccnc1)c1cccc(F)c1 | 2% (inactive)
36 | O=C(NCCN1CCC2(CC1)C(=O)NCN2Cc1cccnc1)c1ccnc2ccccc12 | 13% (inactive)
37 | O=C(NCCN1CCC2(CC1)C(=O)NCN2Cc1cccnc1)c1ccc2cc(F)ccc2c1 | 9% (inactive)
38 | O=C(NCCN1CCC2(CC1)C(=O)NCN2Cc1cccnc1)c1ccc(F)cc1Cl | 0% (inactive)
39 | O=C(NCCN1CCC2(CC1)C(=O)NCN2Cc1ccccc1F)c1ccc2ccccc2c1 | 77% and 87%
40 | O=C(NCCN1CCC2(CC1)C(=O)NCN2Cc1cccc(OC(F)(F)F)c1)c1ccc2ccccc2c1 | 10% (inactive)
41 | O=C(NCCN1CCC2(CC1)C(=O)NCN2Cc1cccnc1)c1sc2ncccc2c1-n1cccc1 | 29% (inactive)
42 | O=C(NCCN1CCC2(CC1)C(=O)NCN2c1ccnc(Cl)c1)c1ccc2ccccc2c1 | 0% (inactive)
43 | O=C(NCCN1CCC2(CC1)C(=O)NCN2c1cncc(F)c1)c1ccc(Br)cc1 | 12% (inactive)
44 | O=C(NCCN1CCC2(CC1)C(=O)NCN2Cc1cccnc1)c1c(Cl)cncc1Cl | 20% (inactive)
45 | COc1cc(C(=O)NCCN2CCC3(CC2)C(=O)NCN3Cc2cccnc2)cc(OC)c1OC | 0% (inactive)
46 | O=C(NCCN1CCC2(CC1)C(=O)NCN2Cc1cccnc1)c1cc2ccccc2o1 | 14% (inactive)
47 | O=C(NCCN1CCC2(CC1)C(=O)NCN2Cc1cccnc1)c1c(F)ccc(Cl)c1F | 0% (inactive)
48 | O=C(NCCN1CCC2(CC1)C(=O)NCN2C(=O)c1ccccc1)c1ccc2ccccc2c1 | 45% (inactive)
49 | O=C(NCCN1CCC2(CC1)C(=O)NCN2Cc1cccnc1)c1cccc2cccnc12 | 4% (inactive)
50 | Cc1cc(C)c2cc(C(=O)NCCN3CCC4(CC3)C(=O)NCN4Cc3cccnc3)[nH]c2c1 | 13% (inactive)
51 | O=C(NCCN1CCC2(CC1)C(=O)NCN2Cc1cccnc1)c1cc2cc(F)ccc2[nH]1 | 4% (inactive)
52 | O=C(NCCN1CCC2(CC1)C(=O)NCN2Cc1ccccc1Br)c1ccc2ccccc2c1 | 96%

Row | Structure (SMILES) | inhibition
53 | O=C(NCCN1CCC2(CC1)NCNC2=O)c1ccc2ccccc2c1 | 7% (inactive)
54 | O=C(NCCN1CCC2(CC1)C(=O)NCN2Cc1cccnc1)c1ccc2ccccc2c1Br | 10% (inactive)
55 | O=C(NCCN1CCC2(CC1)C(=O)NCN2Cc1cccnc1)c1ccc(F)cc1C(F)(F)F | 0% (inactive)
56 | Cn1cc(C(=O)NCCN2CCC3(CC2)C(=O)NCN3Cc2cccnc2)c2ccccc21 | 5% (inactive)
57 | O=C(NCCN1CCC2(CC1)C(=O)NCN2Cc1cccnc1)c1ccc(C(F)(F)F)cc1 | 0% (inactive)
58 | O=C(NCCN1CCC2(CC1)C(=O)NCN2c1cccnc1)c1cc(F)c(F)c(F)c1 | 6% (inactive)
59 | O=C(NCCN1CCC2(CC1)C(=O)NCN2Cc1cccnc1)[C@@H]1C[C@H]1c1ccccc1 | 23% (inactive)
60 | O=C(NCCN1CCC2(CC1)C(=O)NCN2C(=O)c1cccc(F)c1)c1ccc2ccccc2c1 | 50%
61 | O=C(NCCN1CCC2(CC1)C(=O)NCN2c1cncc(F)c1)c1cc2cc(F)ccc2[nH]1 | 26% (inactive)
62 | O=C(NCCN1CCC2(CC1)C(=O)NCN2c1cccnc1)c1ccc(F)cc1 | 7% (inactive)
63 | O=C(NCCN1CCC2(CC1)C(=O)NCN2c1cncc(F)c1)c1ccc2ccccc2c1 | 14% (inactive)
64 | O=C(NCCN1CCC2(CC1)C(=O)NCN2c1cncc(Br)c1)c1ccc2ccccc2c1 | 9% (inactive)
65 | O=C(NCCN1CCC2(CC1)C(=O)NCN2C(=O)C1CC1)c1ccc2ccccc2c1 | 83%
66 | O=C(NCCN1CCC2(CC1)C(=O)NCN2Cc1cccnc1)c1cccc(Cl)c1 | 0% (inactive)
67 | O=C(NCCN1CCC2(CC1)C(=O)NCN2c1ccc(C(F)(F)F)nc1)c1ccc2ccccc2c1 | 2% (inactive)
68 | O=C(NCCN1CCC2(CC1)C(=O)NCN2Cc1cccnc1)c1ccc(Cl)cc1Cl | 0% (inactive)
69 | O=C(NCCN1CCC2(CC1)C(=O)NCN2Cc1cccnc1)c1cc(F)cc(F)c1 | 0% (inactive)
70 | O=C(NCCN1CCC2(CC1)C(=O)NCN2C(=O)C1CCC1)c1ccc2ccccc2c1 | 80%
71 | O=C(NCCN1CCC2(CC1)C(=O)NCN2Cc1cccc(Cl)c1)c1ccc2ccccc2c1 | 89%
72 | O=C(NCCN1CCC2(CC1)C(=O)NCN2Cc1cccnc1)c1cccs1 | 3% (inactive)
73 | O=C(NCCN1CCC2(CC1)C(=O)NCN2Cc1ccccc1)c1ccc2ccccc2c1 | 72%
74 | O=C(NCCN1CCC2(CC1)C(=O)NCN2Cc1cccnc1)c1cc2ccccc2[nH]1 | 64%
75 | O=C(NCCN1C=CC2(CC1)C(=O)NCN2Cc1cccnc1)c1cccc2nsnc12 (stereo not drawn) | 9% (inactive)
76 | O=C(NCCN1CCC2(CC1)C(=O)NCN2Cc1cccnc1)c1cc(F)c(F)c(F)c1 | 0% (inactive)
77 | O=C(NCCN1CCC2(CC1)C(=O)NCN2Cc1cccnc1)c1ccc2ccccc2c1 | 37% (inactive) and 38% (inactive)
78 | O=C(NCCN1CCC2(CC1)C(=O)NCN2Cc1cccnc1)c1nccc2ccccc12 | 0% (inactive)
